From patent US10196657B2, “Methods of producing 7-carbon chemicals via methyl-ester shielded carbon chain elongation” (INVISTA North America S.á r.l., priority 2012, dated 2019) come the findings set out here.

Holding throughout (assay type): biochemical
A short description of experiment [1]: ω-transaminase activity assay, reverse direction (7-aminoheptanoate to pimelate semialdehyde). The following applies: cell free extract, 10 mM 7-aminoheptanoate, 10 mM pyruvate, 25° C., 4 h; against empty vector control; FIG. 15. As for the experimental part:
(§1) A sequence encoding an N-terminal His-tag was added to the genes from Chromobacterium violaceum, Pseudomonas syringae, Rhodobacter sphaeroides, and Vibrio Fluvialis encoding the ω-transaminases of SEQ ID NOs: 8, 10, 11 and 13, respectively (see FIGS. 7F and 7G) such that N-terminal HIS tagged ω-transaminases could be produced. Each of the resulting modified genes was cloned into a pET21a expression vector under control of the T7 promoter and each expression vector was transformed into a BL21[DE3] E. coli host. The resulting recombinant E. coli strains were cultivated at 37° C. in a 250 mL shake flask culture containing 50 mL LB media and antibiotic selection pressure, with shaking at 230 rpm. Each culture was induced overnight at 16° C. using 1 mM IPTG.
(§2) The pellet from each induced shake flask culture was harvested via centrifugation. Each pellet was resuspended and lysed via sonication. The cell debris was separated from the supernatant via centrifugation and the cell free extract was used immediately in enzyme activity assays.
Enzyme activity assays in the reverse direction (i.e., 7-aminoheptanoate to pimelate semialdehyde) were performed in a buffer composed of a final concentration of 50 mM HEPES buffer (pH=7.5), 10 mM 7-aminoheptanoate, 10 mM pyruvate and 100 μM pyridoxyl 5′ phosphate. […] The formation of L-alanine from pyruvate was quantified via RP-HPLC.

A short description of experiment [2]: ω-transaminase activity assay, forward direction (pimelate semialdehyde to 7-aminoheptanoate). As for the experimental part: as §1, §2
Enzyme activity in the forward direction (i.e., pimelate semialdehyde to 7-aminoheptanoate) was confirmed for the transaminases of SEQ ID NO 10, SEQ ID NO 11 and SEQ ID NO 13. […] The formation of pyruvate was quantified via RP-HPLC.

A short description of experiment [3]: ω-transaminase activity assay, 7-aminoheptanol to 7-oxoheptanol. As for the experimental part: A nucleotide sequence encoding an N-terminal His-tag was added to the Chromobacterium violaceum, Pseudomonas syringae and Rhodobacter sphaeroides genes encoding the ω-transaminases of SEQ ID NOs: 8, 10 and 11, respectively (see FIGS. 7F and 7G) such that N-terminal HIS tagged ω-transaminases could be produced. The modified genes were cloned into a pET21a expression vector under the T7 promoter. Each expression vector was transformed into a BL21[DE3] E. coli host. Each resulting recombinant E. coli strain were cultivated at 37° C. in a 250 mL shake flask culture containing 50 mL LB media and antibiotic selection pressure, with shaking at 230 rpm. Each culture was induced overnight at 16° C. using 1 mM IPTG.
as §2
Enzyme activity assays in the reverse direction (i.e., 7-aminoheptanol to 7-oxoheptanol) were performed in a buffer composed of a final concentration of 50 mM HEPES buffer (pH=7.5), 10 mM 7-aminoheptanol, 10 mM pyruvate, and 100 μM pyridoxyl 5′ phosphate. […] The formation of L-alanine was quantified via RP-HPLC.

As for “SEQ ID NO 11: Rhodobacter sphaeroides ω-transaminase, Genbank Accession No. ABA81135.1”, the “acceptance of 7-aminoheptanoate as substrate (formation of L-alanine from pyruvate, RP-HPLC)” value in experiment [1] was “accepted 7-aminoheptanote as substrate”. Besides, the “acceptance of pimelate semialdehyde as substrate (formation of pyruvate from L-alanine, RP-HPLC)” value in experiment [2] (cell free extract, 10 mM pimelate semialdehyde, 10 mM L-alanine, 25° C., 4 h, against empty vector control, FIG. 16) is “accepted pimelate semialdehyde as substrate”. Besides, the “acceptance of pimelate semialdehyde as substrate, synthesizing 7-aminoheptanoate (conclusion from confirmed reversibility)” value in experiment [2] (concluded from reversibility of the ω-transaminase activity) is reported as “accepted pimelate semialdehyde as substrate”. Further, in experiment [3] (cell free extract, 10 mM 7-aminoheptanol, 10 mM pyruvate, 25° C., 4 h, against empty vector control, FIG. 19), the “acceptance of 7-aminoheptanol as substrate (formation of L-alanine, RP-HPLC)” value was “accepted 7-aminoheptanol as substrate”. For the same substance, the “acceptance of 7-oxoheptanol as substrate, forming 7-aminoheptanol (concluded from reversibility)” value in experiment [3] (concluded from reversibility of the ω-transaminase activity (Example 2)) is listed as “accept 7-oxoheptanol as substrate”.
